Measurements published in patent US10087191B2, “Piperidine derivative and preparation method and pharmaceutical use thereof” (Jiangsu Hengrui Medicine Co., Ltd., priority 2015, dated 2018).

Key:
MCF7 cells = test: Inhibition of the proliferation of MCF7 cells (Cell Titer-Glo); type: cell-based; details: Homo sapiens, MCF-7 cells, 72 hours, read-out: IC50 value of inhibition effect on the proliferation of MCF7 cells
Procedure: The object of this experiment was to determine the inhibition effect of the compounds on the proliferation activity of MCF7 cells, and the in vitro activity of the compounds was evaluated according to the IC50 value.
After incubation for 24 hours, the medium was removed, then 90 μl of the medium containing 2% FBS and 10 μl of the drug were added to each well, 10 μl of DMSO were added to the control group, and the blank group contained only 100 μl medium containing 2% FBS. The plate was gently shaken and incubated in a incubator at 37° C., 5% CO2. After 72 hours, 50 μl of mixed Cell Titer-Glo (Promega, Cat. No. G7571) were added to each well. The plate was shaken until the ingredients were well mixed, and placed at room temperature for 10 minutes, then the chemiluminescence signal value was determined.
The values of the chemiluminescence signals vs the logarithmic concentrations of the compounds were plotted using Graghpad Prism to obtain IC50 values.

[1] = Pharmacokinetics assay in BALB/C nude mice after intragastrical administration; type: in vivo; details: female, mouse, plasma, po, 3 mg/kg; for AUC: read-out: Area Under Curve AUC; for CL/F: read-out: Clearance CL/F (converted); for half-life: read-out: Half-Life t½ (converted); for MRT: read-out: Mean Residence Time MRT; for Cmax: read-out: Plasma Conc. Cmax
Procedure: BALB/C nude mice were used as test animals. The drug concentration in plasma at different time points was determined by LC/MS/MS after intragastrical administration of the compounds of Examples 10, 14, 20, 21, 57, 68, 71, 73, 74, 76 and 89 to BALB/C nude mice. The pharmacokinetic behavior of the compounds of the present invention was studied and evaluated in BALB/C nude mice.
Ninety-nine (99) female BALB/C nude mice were equally divided into 11 groups, which were purchased from SINO-BRITSH SIPPR/BK LAB. ANIMAL LTD., CO, with Certificate No.: SCXK (Shanghai) 2008-0016.
The appropriate amount of each test compound was weighed, and successively added with 9% PEG400+0.5% tween 80+0.5% PVP+90% aqueous solution of 0.5% CMC.
After an overnight fast, 99 female BALB/C nude mice were equally divided into 11 groups, and administered the test compounds intragastrically at an administration volume of 0.2 mL/10 g.
Blood (0.1 mL) was sampled (3 mice at each time point) at 0.5, 1.0, 2.0, 4.0, 6.0, 8.0, 11.0 and 24.0 hours after administration. The samples were stored in heparinized test tubes, and centrifuged for 10 minutes at 3,500 rpm to separate the blood plasma. The plasma samples were stored at −20° C. The plasma concentration of the test compounds in BALB/C nude mice after intragastrical administration was determined by LC/MS/MS.
Pharmacokinetic parameters of the compounds of Examples 10, 14, 20, 21, 57, 68, 71, 73, 74, 76 and 89 of the present invention are shown below.

| Structure (SMILES) | IC50 (MCF7 cells) | also measured |
| --- | --- | --- |
| CC1Cc2cc(O)ccc2C(c2c(F)cc(/C=C/C(=O)O)cc2F)N1CC(C)(C)F [Example 3, (E)-3-(3,5-difluoro-4-((1S,3R/1R,3S)-2-(2-fluoro-2-methylpropyl)-6-hydroxy-3-methyl-1,2,3,4-tetrahydroisoquinolin-1-yl)phenyl)acrylic acid] | 2.12 nM |  |
| Cc1ncc(-c2ccc3c(c2)CC(C)N(CC(C)(C)F)C3c2c(F)cc(/C=C/C(=O)O)cc2F)s1 [Example 10, (E)-3-(3,5-difluoro-4-((1S,3R/1R,3S)-2-(2-fluoro-2-methylpropyl)-3-methyl-6-(2-methylthiazol-5-yl)-1,2,3,4-tetrahydroisoquinolin-1-yl)phenyl)acrylic acid] | 0.49 nM | AUC [1]: 15400 ng·h/mL; CL/F [1]: 54 mL/min/kg; half-life [1]: 4.11 h; MRT [1]: 5.72 h; Cmax [1]: 2600 ng/mL |
| Cc1ncc(-c2ccc3c(c2)C[C@@H](C)N(CC(C)(C)F)[C@@H]3c2c(F)cc(/C=C/C(=O)O)cc2F)s1 [Example 11, (E)-3-(3,5-difluoro-4-((1S,3R)-2-(2-fluoro-2-methylpropyl)-3-methyl-6-(2-methylthiazol-5-yl)-1,2,3,4-tetrahydroisoquinolin-1-yl)phenyl)acrylic acid] | 0.08 nM |  |
| CCn1cc(-c2ccc3c(c2)CC(C)N(CC(C)(C)F)C3c2c(F)cc(/C=C/C(=O)O)cc2F)cn1 [Example 20, (E)-3-(4-((1S,3R/1R,3S)-6-(1-ethyl-1H-pyrazol-4-yl)-2-(2-fluoro-2-methylpropyl)-3-methyl-1,2,3,4-tetrahydroisoquinolin-1-yl)-3,5-difluorophenyl)acrylic acid] | 0.03 nM | AUC [1]: 13000 ng·h/mL; CL/F [1]: 63.8 mL/min/kg; half-life [1]: 3.27 h; MRT [1]: 4.07 h; Cmax [1]: 3290 ng/mL |
| CCn1cc(-c2ccc3c(c2)C[C@@H](C)N(CC(C)(C)F)[C@@H]3c2c(F)cc(/C=C/C(=O)O)cc2F)cn1 [Example 21, (E)-3-(4-((1S,3R)-6-(1-ethyl-1H-pyrazol-4-yl)-2-(2-fluoro-2-methylpropyl)-3-methyl-1,2,3,4-tetrahydroisoquinolin-1-yl)-3,5-difluorophenyl)acrylic acid] | 0.11 nM | AUC [1]: 10100 ng·h/mL; CL/F [1]: 82.7 mL/min/kg; half-life [1]: 2.52 h; MRT [1]: 2.71 h; Cmax [1]: 4300 ng/mL |
| CCn1cc(-c2ccc3c(c2)C[C@H](C)N(CC(C)(C)F)[C@H]3c2c(F)cc(/C=C/C(=O)O)cc2F)cn1 [Example 22, (E)-3-(4-((1R,3S)-6-(1-ethyl-1H-pyrazol-4-yl)-2-(2-fluoro-2-methylpropyl)-3-methyl-1,2,3,4-tetrahydroisoquinolin-1-yl)-3,5-difluorophenyl)acrylic acid] | 17.4 nM |  |
| C[C@@H]1Cc2cc(-c3cn[nH]c3)ccc2[C@@H](c2c(F)cc(/C=C/C(=O)O)cc2F)N1CC(C)(C)F [Example 25, (E)-3-(3,5-difluoro-4-((1S,3R)-2-(2-fluoro-2-methylpropyl)-3-methyl-6-(1H-pyrazol-4-yl)-1,2,3,4-tetrahydroisoquinolin-1-yl)phenyl)acrylic acid] | 0.22 nM |  |
| CC1Cc2cc(-c3cccnc3)ccc2C(c2c(F)cc(/C=C/C(=O)O)cc2F)N1CC(C)(C)F [Example 28, (E)-3-(3,5-difluoro-4-((1S,3R/1R,3S)-2-(2-fluoro-2-methylpropyl)-3-methyl-6-(pyridin-3-yl)-1,2,3,4-tetrahydroisoquinolin-1-yl)phenyl)acrylic acid] | 3.71 nM |  |
| CNC(=O)Nc1ccc2c(c1)CC(C)N(CC(C)(C)F)C2c1c(F)cc(/C=C/C(=O)O)cc1F [Example 29, (E)-3-(3,5-difluoro-4-((1S,3R/1R,3S)-2-(2-fluoro-2-methylpropyl)-3-methyl-6-(3-methylureido)-1,2,3,4-tetrahydroisoquinolin-1-yl)phenyl)acrylic acid] | 4.82 nM |  |
| CC1Cc2cc(NC(=O)N(C)C)ccc2C(c2c(F)cc(/C=C/C(=O)O)cc2F)N1CC(C)(C)F [Example 44, (E)-3-(4-((1S,3R/1R,3S)-6-(3,3-dimethylureido)-2-(2-fluoro-2-methylpropyl)-3-methyl-1,2,3,4-tetrahydroisoquinolin-1-yl)-3,5-difluorophenyl)acrylic acid] | 1.59 nM |  |
| CCc1nc(-c2ccc3c(c2)CC(C)N(CC(C)(C)F)C3c2c(F)cc(/C=C/C(=O)O)cc2F)no1 [Example 46, (E)-3-(4-((1S,3R/1R,3S)-6-(5-ethyl-1,2,4-oxadiazol-3-yl)-2-(2-fluoro-2-methylpropyl)-3-methyl-1,2,3,4-tetrahydroisoquinolin-1-yl)-3,5-difluorophenyl)acrylic acid] | 3.66 nM |  |
| CC1Cc2cc(-c3nnn(C)n3)ccc2C(c2c(F)cc(/C=C/C(=O)O)cc2F)N1CC(C)(C)F [Example 51, (E)-3-(3,5-difluoro-4-((1S,3R/1R,3S)-2-(2-fluoro-2-methylpropyl)-3-methyl-6-(2-methyl-2H-tetrazol-5-yl)-1,2,3,4-tetrahydroisoquinolin-1-yl)phenyl)acrylic acid] | 3.07 nM |  |
| Cc1noc(-c2ccc3c(c2)CC(C)N(CC(C)(C)F)C3c2c(F)cc(/C=C/C(=O)O)cc2F)n1 [Example 53, (E)-3-(3,5-difluoro-4-((1S,3R/1R,3S)-2-(2-fluoro-2-methylpropyl)-3-methyl-6-(3-methyl-1,2,4-oxadiazol-5-yl)-1,2,3,4-tetrahydroisoquinolin-1-yl)phenyl)acrylic acid] | 15 nM |  |
| C[C@H]1Cc2cc(-c3cnn(C)c3)ccc2[C@H](c2c(F)cc(/C=C/C(=O)O)cc2F)N1CC(C)(C)F [Example 56, (E)-3-(3,5-difluoro-4-((1R,3S)-2-(2-fluoro-2-methylpropyl)-3-methyl-6-(1-methyl-1H-pyrazol-4-yl)-1,2,3,4-tetrahydroisoquinolin-1-yl)phenyl)acrylic acid] | 0.01 nM |  |
| CC1Cc2cc(-c3ccc(-c4cnn(C)c4)nc3)ccc2C(c2c(F)cc(/C=C/C(=O)O)cc2F)N1CC(C)(C)F [Example 61, (E)-3-(3,5-difluoro-4-((1S,3R/1R,3S)-2-(2-fluoro-2-methylpropyl)-3-methyl-6-(6-(1-methyl-1H-pyrazol-4-yl)pyridin-3-yl)-1,2,3,4-tetrahydroisoquinolin-1-yl)phenyl)acrylic acid] | 3.58 nM |  |
| CC1Cc2c(oc3c(F)cccc23)C(c2c(F)cc(/C=C/C(=O)O)cc2F)N1CC(C)(C)F [Example 84, (E)-3-(3,5-difluoro-4-((1R,3R/1S,3S)-8-fluoro-2-(2-fluoro-2-methylpropyl)-3-methyl-1,2,3,4-tetrahydrobenzofuro[2,3-c]pyridin-1-yl)phenyl)acrylic acid] | 4.21 nM |  |
| CC1Cc2c(oc3ccc(Br)cc23)C(c2c(F)cc(/C=C/C(=O)O)cc2F)N1CC(C)(C)F [Example 87, (E)-3-(4-((1R,3R/1S,3S)-6-bromo-2-(2-fluoro-2-methylpropyl)-3-methyl-1,2,3,4-tetrahydrobenzofuro[2,3-c]pyridin-1-yl)-3,5-difluorophenyl)acrylic acid] | 9.27 nM |  |
| CC1Cc2c(oc3ccc(-c4cccnc4)cc23)C(c2c(F)cc(/C=C/C(=O)O)cc2F)N1CC(C)(C)F [Example 90, (E)-3-(3,5-difluoro-4-((1R,3R/1S,3S)-2-(2-fluoro-2-methylpropyl)-3-methyl-6-(pyridin-3-yl)-1,2,3,4-tetrahydrobenzofuro[2,3-c]pyridin-1-yl)phenyl)acrylic acid] | 0.21 nM |  |
| CC(C)CN1C(C)Cc2c(ccc3[nH]ncc23)C1c1c(F)cc(/C=C/C(=O)O)cc1F [Example 92, (E)-3-(3,5-difluoro-4-((6S,8R/6R,8S)-7-isobutyl-8-methyl-6,7,8,9-tetrahydro-3H-pyrazolo[4,3-f]isoquinolin-6-yl)phenyl)acrylic acid] | 0.99 nM |  |
